PMC4633953, “FR171456 is a specific inhibitor of mammalian NSDHL and yeast Erg26p” (Nature Communications, 2015)
Values joined by “and” are separate entries in the source; they are usually repeats but may differ in a detail not shown here. Identical values can stand only once.

Legend:
S. cerevisiae = assay: Yeast fermentation with FR171456 and metabolic profiling for substrate accumulation; assay type: cell-based
Description: In the fermentation experiment, a single yeast colony was grown in 10 ml YP with galactose (2%) & Raffinose (1%) for 5 h (OD 1.0) at 30 °C. An inoculum (70 μl) from the same culture was used to inoculate 400 ml YP-gal (2%)+Raffinose (1%). This culture was then grown overnight at 30 °C. The OD at this point was 0.7. This culture was used to seed 20-l fermenter maintained at 30 °C. When OD in the fermenter was 0.7, then 1466, nM (IC80) of FR171456 was added to the fermenter. The cell pellets (3.8 g) were harvested after 7 h. Erg26p substrate (1.95 mg) was obtained by lipid extraction with ethylacetate and methanol.
Lipid extracts from yeast cells were prepared as described as above. Ergosterol and 4α-methylzymosterol-4-carboxylic acid were analysed on an UltiMate 3000 RS LC (Thermo Fisher Scientific, Waltham, MA, USA) coupled to a 4000 QTRAP (AB Sciex, Foster City, CA, USA), which was equipped with a ESI-Turbo Spray ion source (AB Sciex). […]
Ion source parameters and compound-dependent instrument parameters were optimized by infusing pure standard solutions of ergosterol and 4α-methylzymosterol-4-carboxylic acid, respectively. […] All mass transitions were monitored for 65 msec per SRM scan with a unit/unit resolution for Q1/Q3. […]

Rhizopus oryzae NF4801 = assay: Antifungal MIC; assay type: cell-based; conditions: Rhizopus arrhizus
[1] = tested on: replicon-carrying Huh-7 cells; assay: Proliferation/viability of replicon-carrying Huh-7 cells (resazurin); assay type: cell-based, human; conditions: replicon assay conditions
Description: The inhibitor screening was performed in 1,536-well plate with 3,000 cells per well, using Huh-7 cells containing the HCV replicon subgenomic genotype 1b, maintained in DMEM, supplemented with (1 × ) L-glutamine (L-Glue), 1 × non-essential amino acids, 10% heat-inactivated fetal bovine serum (FBS), and 1 mg ml^–1 G418, and incubated with compounds for 48 h at 37 °C, 5% CO2. […] Following compound incubation, Resazurin solution (10 × : 1 μg μl^–1 Resazurin in DMSO) diluted to 1 × was then added to a volume of 0.5 μl to each well and incubated for further 3 h at 37 °C, 5% CO2 to monitor cell viability. Subsequently 15 μl, diluted 1:2 from stock of Steady- Glo (Promega) was added and the luminescence from the HCV replicon was monitored using the Envision (Envision US Lum, using 0.1 s per well measurement time).

[2] = tested on: Fusarium verticillioides NF4901; assay: Antifungal MIC; assay type: cell-based

C=C(CCC(C)C1CCC2C1(C)CC(O)C13CC14C(=O)CC(O)C(C)(C(=O)O)C4C(=O)CC23O)C(C)C [FR171456, (1R,2aR,3R,5aR,5bS,7aR,8S,9S,11aS,12aR)-1,5b,9-trihydroxy-2a,8-dimethyl-3-((R)-6-methyl-5-methyleneheptan-2-yl)-7,11-dioxohexadecahydrocyclopenta[a]cyclopropa[e]-phenanthrene-8-carboxylic acid]
Erg26p precursor (4α-methylzymosterol-4-carboxylic acid) level (S. cerevisiae; FR171456 1466 nM for 7 h): accumulates | IC80 (S. cerevisiae; Saccharomyces cerevisiae, yeast in YP-gal (2%)+Raffinose (1%), fermenter 30 °C): 1470 nM | MIC (Rhizopus oryzae NF4801): 8 µg/mL and 18 µM | concentration not affecting proliferation [1]: > 4 µM | MIC [2]: 32 µg/mL and 72 µM
